# Experimental data: US20230077811A1, “ACTIVATION OF NEUROPEPTIDE RECEPTORS ON PLASMACYTOID DENDRITIC CELLS TO TREAT OR PREVENT OCULAR DISEASES ASSOCIATED WITH NEOVASCULARIZATION AND INFLAMMATION” (Tufts Medical Center, Inc., priority 2020, published 2023)
# Where two headings read alike, the source gives them in different places.
# Experiments:
# [1] = test system: splenic pDCs; test: Flow cytometry of splenic pDCs for ES and TSP-1 after 24 hours with neuropeptide receptor agonists; format: cell-based, C57BL/6 mice
# [2] = test system: murine pDCs; test: Flow cytometry of murine pDCs incubated with THIQ for angiostatic proteins; format: cell-based; details: THIQ 10 ug/mL
# [3] = test system: human corneal pDCs; test: Flow cytometry of human corneal pDCs incubated with THIQ for angiostatic proteins; format: cell-based; details: THIQ 10 ug/mL
# Excerpt: Phenotypically murine and human pDCs express divergent sets of surface markers as reviewed by Rogers et al. (Rogers et al., Am. J. Transplant. 13:1125-1133, 2013). Human pDCs express the pan leukocyte marker CD45, BDCA2 (CD303), and BDCA4 (neuropilin-1). To examine the possibility that murine but not human pDCs express angiostatic molecules, human corneal eye bank research samples for ES, PF-4, TSP-1 and TIMP3 were examined. Human corneal tissues were obtained and processed by […] Eyebank (Ann Arbor, Mich., USA) according to a standardized eye banking protocols, and procedures. […] The exclusion criterion was tissue from donors with corneal neovascularization, or a history of diabetes, cancer, or keratitis. […] Pharmacol. Toxicol. 101:416-420, 2007; Sebhat et al., J. Med. Chem. 45:4589-4593, 2002) was utilized. The ability of THIQ (10 ug/mL) to impact murine and human pDCs was tested.
# [4] = test system: suture induced CNV; test: Suture induced model of corneal neovascularization (CNV), CD31 whole mount quantification; format: in vivo, C57BL/6 mice
# [5] = test system: CNV in C57BL/6 to BALB/c corneal transplants; test: High-risk corneal transplant model (C57BL/6 to BALB/c), CNV quantified by CD31 staining; format: in vivo, BALB/c mice; details: subconjunctival THIQ (10 ug/mL) every other day for 14 days, versus saline
# [6] = test system: phospho-PKCδ/θ (Ser643/676); test: Immunoblot of PKC isoform phosphorylation in FACS-sorted pDCs treated with THIQ; format: cell-based, murine
# Experimental: Previous studies have shown the MC4 receptor to couple to all three major classes of G proteins, Gs, Gi/o, and Gq depending on cell type (Tao, Endocr. Rev. 31:506-543, 2010). To test pDC MC4 signaling, FACS-sorted pDCs were incubated with THIQ (10 ug/mL) for 5, 15, or 30 minutes. Protein kinase C (PKC) isoform phosphorylation was examined by phospho-PKC specific antibodies and immunoblotting. Specifically, Splenic pDCs were FACs sorted as previously described. Five hundred thousand pDCs were used per condition and lysed directly with chilled 1× radioimmunoprecipitation assay (RIPA) buffer or 1× Laemmli Buffer on ice. Samples were diluted in NuPAGE sample loading buffer (ThermoFisher) and 1× NuPAGE Sample Reducing Agent (ThermoFisher) and heated to 70° C. for 10 minutes. Protein lysates were resolved on a 10% Bis-Tris SDS gel (ThermoFisher) and transferred to a nitrocellulose membrane (ThermoFisher). Membranes were blocked with odyssey blocking buffer (Licor) for one hour and incubated with protein specific primary antibodies (1:100 or 1:200) overnight at 4° C. Membranes were washed with blocking buffer and secondary antibodies were diluted (1:5000 or 1:15000) and incubated with membranes for 60 minutes at room temperature. Membranes were imaged using an Odyssey® CLx Imaging System (Licor). Image analysis was done using Image Studio software. Protein sampling kits for PKC, and NF-κB signaling antibodies were purchased from Cell signaling (Phospho-PKC Antibody Sampler Kit #9921 and NF-κB Pathway Sampler Kit #9936).
# [7] = test system: NF-kB; test: Immunofluorescence of NF-kB (RelB, c-Rel) nuclear localization in sorted pDCs treated with THIQ; format: cell-based, murine; details: THIQ 10 ug/mL, 24 hours, compared to control pDCs
compound,measurement,setting,value
"COC(=O)[C@H](CCCN=C(N)N)NC(=O)CCCc1c(-c2ccccc2)[nH]c2c(F)cc(F)cc12 [L-803,087]",pDC ES protein expression,"[1]; 24 hours, compared to baseline",mixed impact
same,pDC TSP-1 protein expression,"[1]; 24 hours, compared to baseline",mixed impact
"O=C(N[C@H](Cc1ccc(Cl)cc1)C(=O)N1CCC(Cn2cncn2)(C2CCCCC2)CC1)[C@H]1Cc2ccccc2CN1 [THIQ, (3R)—N-[(2R)-3-(4-chlorophenyl)-1-[4-cyclohexyl-4-(1,2,4-triazol-1-ylmethyl)piperidin-1-yl]-1-oxopropan-2-yl]-1,2,3,4-tetrahydroisoquinoline-3-carboxamide]",ES mean fluorescence intensity (MFI),[2],increased
same,PF4 mean fluorescence intensity (MFI),[2],increased
same,TIMP3 mean fluorescence intensity (MFI),[2],increased
same,TSP-1 mean fluorescence intensity (MFI),[2],increased
same,ES mean fluorescence intensity (MFI),[3],increased
same,PF4 mean fluorescence intensity (MFI),[3],increased
same,TIMP3 mean fluorescence intensity (MFI),[3],increased
same,TSP-1 mean fluorescence intensity (MFI),[3],increased
same,Reduction of suture induced CNV,"[4]; subconjunctival injection of THIQ (10 ug/mL) every other day for 14 days, versus saline",46%
same,"CNV, MC4 siRNA with THIQ versus control siRNA","[4]; sutured C57BL/6, injected every other day for two weeks, THIQ together with siRNA against MC4",No statistical difference
same,CNV in corneal transplants,[5],reduced
same,Phosphorylation of additional PKC isoforms,"[6]; THIQ 10 ug/mL, 5, 15 or 30 minutes",not observed
same,PKCδ/θ (Ser643/676) phosphorylation,"[6]; THIQ 10 ug/mL, 15 minutes, normalized to actin",decreased
same,PKCδ/θ (Ser643/676) phosphorylation,"[6]; THIQ 10 ug/mL, 30 minutes, normalized to actin",decreased
same,phospho-PKCδ/θ (Ser643/676) phosphorylation,"[6]; THIQ 10 ug/mL, five minutes, normalized to actin",Increased
same,RelB nuclear localization,[7],Increased
same,c-Rel nuclear localization,[7],not
Dynorphin A,pDC ES protein expression,[1],increased
same,pDC TSP-1 protein expression,[1],increased
